# Columns and labels:
# [1] = tested on: duck salad; test: Test C flooded paddy test; assay type: in vivo, Heteranthera limosa; details: Flood
# Procedure, shortened: (§1)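 Pots were flooded to 3 cm above the soil surface at treatment, compound applied directly to the paddy water, and that depth held throughout. Plants were kept in a greenhouse for 13 to 15 days, then visually rated against untreated controls.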
# [2] = tested on: woolly cupgrass; test: Test C pre-/postemergence test; assay type: in vivo, Eriochloa villosa; details: for Plant response rating, Cupgrass, Woolly: 31 g ai/ha, scale 0 to 100 (0 no effect, 100 complete control)
# Procedure, shortened: (§2)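 Compounds in a non-phytotoxic solvent with surfactant applied preemergence to seeded pots and, at the same time, postemergence to plants 2–18 cm tall (1- to 4-leaf stage). Paddy tests: pots flooded to 3 cm, compound applied into the water, depth held throughout.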
# [3] = tested on: umbrella sedge; test: Test C flooded paddy test; assay type: in vivo, Cyperus difformis; details: Flood
# Procedure, shortened: as §1
# [4] = tested on: wheat; test: Test C pre-/postemergence test; assay type: in vivo, Triticum aestivum; details: for Plant response rating, Wheat: 31 g ai/ha, scale 0 to 100 (0 no effect, 100 complete control)
# Procedure, shortened: as §2
# [5] = tested on: eastern black nightshade; test: Test C pre-/postemergence test; assay type: in vivo, Solanum ptycanthum; details: for Plant response rating, Nightshade: 31 g ai/ha, scale 0 to 100 (0 no effect, 100 complete control)
# Procedure, shortened: as §2
# [6] = tested on: wild oat; test: Test C pre-/postemergence test; assay type: in vivo, Avena fatua; details: for Plant response rating, Oat, Wild: 31 g ai/ha, scale 0 to 100 (0 no effect, 100 complete control)
# Procedure, shortened: as §2
# [7] = tested on: corn; test: Test C pre-/postemergence test; assay type: in vivo, Zea mays; details: for Plant response rating, Corn: 31 g ai/ha, scale 0 to 100 (0 no effect, 100 complete control)
# Procedure, shortened: as §2
# [8] = tested on: green foxtail; test: Test C pre-/postemergence test; assay type: in vivo, Setaria viridis; details: for Plant response rating, Foxtail, Green: 31 g ai/ha, scale 0 to 100 (0 no effect, 100 complete control)
# Procedure, shortened: as §2
# [9] = tested on: blackgrass; test: Test C pre-/postemergence test; assay type: in vivo, Alopecurus myosuroides
# Procedure, shortened: as §2
# [10] = tested on: common ragweed; test: Test C pre-/postemergence test; assay type: in vivo, Ambrosia elation
# Procedure, shortened: as §2
# [11] = tested on: Italian ryegrass; test: Test C pre-/postemergence test; assay type: in vivo, Lolium multiflorum; details: for Plant response rating, Ryegrass, Italian: 31 g ai/ha, scale 0 to 100 (0 no effect, 100 complete control)
# Procedure, shortened: as §2
# [12] = tested on: crabgrass; test: Test A pre-/postemergence greenhouse test; assay type: in vivo, Digitaria sanguinalis; details: for Plant response rating, Crabgrass, Large: 0 to 100 scale where 0 is no effect and 100 is complete control; for Crabgrass, Large plant response rating: 0 to 100 scale
# Procedure, shortened: (§3)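 Visual injury ratings, made relative to untreated controls roughly ten days after treatment, cover both preemergence and postemergence application. Compounds in a surfactant-containing non-phytotoxic solvent were sprayed onto the soil surface after sowing and, simultaneously, onto young plants at the one- to two-leaf stage.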
# [13] = tested on: common (oilseed) sunflower; test: Test C pre-/postemergence test; assay type: in vivo, Helianthus annuus
# Procedure, shortened: as §2
# [14] = tested on: morningglory; test: Test A pre-/postemergence greenhouse test; assay type: in vivo, Ipomoea spp.; details: for Plant response rating, Morningglory: 0 to 100 scale where 0 is no effect and 100 is complete control; for Morningglory plant response rating: 0 to 100 scale
# Procedure, shortened: as §3
# [15] = tested on: Goosegrass; test: Test C pre-/postemergence test; assay type: in vivo, Eleusin indica; details: for Plant response rating, Goosegrass: 31 g ai/ha, scale 0 to 100 (0 no effect, 100 complete control)
# Procedure, shortened: as §2
# [16] = tested on: redroot pigweed; test: Test A pre-/postemergence greenhouse test; assay type: in vivo, Amaranthus retroflexus; details: for Plant response rating, Pigweed: 0 to 100 scale where 0 is no effect and 100 is complete control; for Pigweed plant response rating: 0 to 100 scale
# Procedure, shortened: as §3
# [17] = tested on: yellow nutsedge; test: Test C pre-/postemergence test; assay type: in vivo, Cyperus esculentus; details: for Plant response rating, Nutsedge, Yellow: 31 g ai/ha, scale 0 to 100 (0 no effect, 100 complete control)
# Procedure, shortened: as §2
# [18] = 62 g ai/ha, scale 0 to 100 (0 no effect, 100 complete control)
# [19] = 250 g ai/ha, scale 0 to 100, 0 no effect, 100 complete control, 13 to 15 days
# [20] = 62 g ai/ha, Preemergence, scale 0 to 100
# [21] = 125 g ai/ha, preemergence, scale 0 (no effect) to 100 (complete control)
# [22] = preemergence, 250 g ai/ha, scale 0 (no effect) to 100 (complete control)
# [23] = Postemergence, 500 g ai/ha, 0 is no effect, 100 is complete control
# [24] = Preemergence, 125 g ai/ha, 0 no effect, 100 complete control
# [25] = Preemergence, 31 g ai/ha, scale 0 to 100 (0 no effect, 100 complete control)
# [26] = Preemergence, 500 g ai/ha, 0 no effect, 100 complete control
smiles,measurement,setting,value
Cn1nc(OC(F)F)c(CS(=O)(=O)c2cccc[n+]2[O-])c1C(F)(F)F [Compound 80],"Plant response rating, Ducksalad",[1]; [18],0
same,"Plant response rating, Ducksalad",[1]; [19],85
same,"Cupgrass, Woolly plant response rating",[2]; [20],100
same,"Cupgrass, Woolly plant response rating",[2]; [21],100
same,"Plant response rating, Cupgrass, Woolly",[2]; Preemergence,100
same,"Cupgrass, Woolly plant response rating",[2]; [22],100
same,"Plant response rating, Sedge, Umbrella",[3]; [18],0
same,"Plant response rating, Sedge, Umbrella",[3]; [19],85
same,Wheat plant response rating,[4]; [20],45
same,Wheat plant response rating,[4]; [21],65
same,"Plant response rating, Wheat",[4]; Preemergence,10
same,Wheat plant response rating,[4]; [22],80
same,Nightshade plant response rating,[5]; [20],80
same,"Plant response rating, Nightshade",[5]; Preemergence,50
same,Nightshade plant response rating,[5]; [22],90
same,"Oat, Wild plant response rating",[6]; [20],85
same,"Oat, Wild plant response rating",[6]; [21],95
same,"Plant response rating, Oat, Wild",[6]; Preemergence,70
same,"Oat, Wild plant response rating",[6]; [22],100
same,Corn plant response rating,[7]; [20],35
same,Corn plant response rating,[7]; [21],90
same,"Plant response rating, Corn",[7]; Preemergence,30
same,Corn plant response rating,[7]; [22],98
same,"Foxtail, Green plant response rating",[8]; [20],85
same,"Foxtail, Green plant response rating",[8]; [21],100
same,"Plant response rating, Foxtail, Green",[8]; Preemergence,85
same,"Foxtail, Green plant response rating",[8]; [22],100
same,Blackgrass plant response rating,[9]; [22],90
same,Ragweed plant response rating,[10]; [20],0
same,Ragweed plant response rating,[10]; [21],85
same,Ragweed plant response rating,[10]; [22],100
same,"Ryegrass, Italian plant response rating",[11]; [20],70
same,"Ryegrass, Italian plant response rating",[11]; [21],85
same,"Plant response rating, Ryegrass, Italian",[11]; Preemergence,0
same,"Ryegrass, Italian plant response rating",[11]; [22],90
same,"Plant response rating, Crabgrass, Large","[12]; Postemergence, 125 g ai/ha",40
same,"Crabgrass, Large plant response rating",[12]; [23],80
same,"Crabgrass, Large plant response rating",[12]; [24],80
same,"Plant response rating, Crabgrass, Large","[12]; Preemergence, 500 g ai/ha",90
same,Sunflower plant response rating,[13]; [20],20
same,Sunflower plant response rating,[13]; [21],40
same,"Plant response rating, Sunflower",[13]; [25],5
same,Sunflower plant response rating,[13]; [22],45
same,"Plant response rating, Morningglory","[14]; Postemergence, 125 g ai/ha",10
same,Morningglory plant response rating,[14]; [23],50
same,Morningglory plant response rating,[14]; [24],60
same,"Plant response rating, Morningglory","[14]; Preemergence, 500 g ai/ha",80
same,Goosegrass plant response rating,[15]; [20],98
same,Goosegrass plant response rating,[15]; [21],100
same,"Plant response rating, Goosegrass",[15]; Preemergence,80
same,Goosegrass plant response rating,[15]; [22],100
same,"Plant response rating, Pigweed","[16]; Postemergence, 125 g ai/ha",10
same,Pigweed plant response rating,[16]; [23],40
same,Pigweed plant response rating,[16]; [24],70
same,"Plant response rating, Pigweed","[16]; Preemergence, 500 g ai/ha",90
same,"Nutsedge, Yellow plant response rating",[17]; [20],75
same,"Nutsedge, Yellow plant response rating",[17]; [21],85
same,"Plant response rating, Nutsedge, Yellow",[17]; Preemergence,45
same,"Nutsedge, Yellow plant response rating",[17]; [22],95
CCc1cc[n+]([O-])c(S(=O)(=O)Cc2c(C(F)(F)F)nn(C)c2OC(F)F)c1 [Compound 102],"Plant response rating, Ducksalad",[1]; [18],0
same,"Plant response rating, Ducksalad",[1]; [19],80
same,"Cupgrass, Woolly plant response rating",[2]; [20],85
same,"Cupgrass, Woolly plant response rating",[2]; [21],85
same,"Plant response rating, Cupgrass, Woolly",[2]; Preemergence,50
same,"Cupgrass, Woolly plant response rating",[2]; [22],95
same,"Plant response rating, Sedge, Umbrella",[3]; [18],0
same,"Plant response rating, Sedge, Umbrella",[3]; [19],70
same,Wheat plant response rating,[4]; [20],0
same,Wheat plant response rating,[4]; [21],40
same,"Plant response rating, Wheat",[4]; Preemergence,0
same,Wheat plant response rating,[4]; [22],90
same,Nightshade plant response rating,[5]; [20],90
same,Nightshade plant response rating,[5]; [21],95
same,"Plant response rating, Nightshade",[5]; Preemergence,85
same,Nightshade plant response rating,[5]; [22],98
same,"Oat, Wild plant response rating",[6]; [20],70
same,"Oat, Wild plant response rating",[6]; [21],90
same,"Plant response rating, Oat, Wild",[6]; Preemergence,35
same,"Oat, Wild plant response rating",[6]; [22],95
same,Corn plant response rating,[7]; [20],0
same,Corn plant response rating,[7]; [21],0
same,"Plant response rating, Corn",[7]; Preemergence,0
same,Corn plant response rating,[7]; [22],0
same,"Foxtail, Green plant response rating",[8]; [20],95
same,"Foxtail, Green plant response rating",[8]; [21],98
same,"Plant response rating, Foxtail, Green",[8]; Preemergence,85
same,"Foxtail, Green plant response rating",[8]; [22],100
same,Blackgrass plant response rating,[9]; [20],80
same,Blackgrass plant response rating,[9]; [21],80
same,"Plant response rating, Blackgrass",[9]; [25],10
same,Ragweed plant response rating,[10]; [20],80
same,Ragweed plant response rating,[10]; [21],85
same,"Plant response rating, Ragweed",[10]; [25],75
same,Ragweed plant response rating,[10]; [22],95
same,"Ryegrass, Italian plant response rating",[11]; [20],0
same,"Ryegrass, Italian plant response rating",[11]; [21],0
same,"Plant response rating, Ryegrass, Italian",[11]; Preemergence,0
same,"Ryegrass, Italian plant response rating",[11]; [22],20
same,"Plant response rating, Crabgrass, Large","[12]; Postemergence, 125 g ai/ha",60
same,"Crabgrass, Large plant response rating",[12]; [23],90
same,"Crabgrass, Large plant response rating",[12]; [24],90
same,"Crabgrass, Large plant response rating",[12]; [26],90
same,Sunflower plant response rating,[13]; [20],0
same,Sunflower plant response rating,[13]; [21],60
same,Sunflower plant response rating,[13]; [22],80
same,"Plant response rating, Morningglory","[14]; Postemergence, 125 g ai/ha",50
same,Morningglory plant response rating,[14]; [23],100
same,Morningglory plant response rating,[14]; [24],100
same,Morningglory plant response rating,[14]; [26],100
same,Goosegrass plant response rating,[15]; [20],98
same,Goosegrass plant response rating,[15]; [21],100
same,"Plant response rating, Goosegrass",[15]; Preemergence,85
same,Goosegrass plant response rating,[15]; [22],100
same,"Plant response rating, Pigweed","[16]; Postemergence, 125 g ai/ha",70
same,Pigweed plant response rating,[16]; [23],100
same,Pigweed plant response rating,[16]; [24],100
same,Pigweed plant response rating,[16]; [26],100
same,"Nutsedge, Yellow plant response rating",[17]; [20],50
same,"Nutsedge, Yellow plant response rating",[17]; [21],50
same,"Plant response rating, Nutsedge, Yellow",[17]; Preemergence,0
same,"Nutsedge, Yellow plant response rating",[17]; [22],85

# Source: patent US20100298141A1, “SUBSTITUTED PYRIDINE N-OXIDE HERBICIDES” (E. I. DU PONT DE NEMOURS AND COMPANY, priority 2007, published 2010)
